Laboratory results from ChEMBL document CHEMBL3875175, “Multi-targeting exploration of new 2-aminothiazolyl quinolones: Synthesis, antimicrobial evaluation, interaction with DNA, combination with topoisomerase IV and penetrability into cells” (Eur J Med Chem, 2016).
In brackets after ≈: the same amount, converted by molar mass.

Assays:
Salmonella typhi = assay: Antibacterial activity against Bacillus typhi after 24 hrs by two fold serial dilution method; assay type: functional, Salmonella enterica subsp. enterica serovar Typhi; conditions: Salmonella enterica
Proteus vulgaris = assay: Antibacterial activity against Bacillus proteus ATCC 13315 after 24 hrs by two fold serial dilution method; assay type: functional; conditions: ATCC 13315, 24 h
Escherichia coli [1] = assay: Antibacterial activity against Escherichia coli JM109 after 24 hrs by two fold serial dilution method; assay type: functional; conditions: JM109, 24 h
Candida albicans = assay: Antifungal activity against Candida albicans ATCC 76615 after 24 hrs by two fold serial dilution method; assay type: functional; conditions: ATCC 76615, 24 h
Shigella dysenteriae = assay: Antibacterial activity against Shigella dysenteriae after 24 hrs by two fold serial dilution method; assay type: functional
[2] = Antifungal activity against Candida mycoderma after 24 hrs by two fold serial dilution method; assay type: functional; conditions: Pichia norvegensis
Escherichia coli [3] = assay: Antibacterial activity against Escherichia coli DH52 after 24 hrs by two fold serial dilution method; assay type: functional; conditions: DH52, 24 h
Staphylococcus aureus [4] = assay: Antibacterial activity against methicillin-resistant Staphylococcus aureus N315 after 24 hrs by two fold serial dilution method; assay type: functional; conditions: N315, 24 h
Bacillus spizizenii = assay: Antibacterial activity against Bacillus subtilis ATCC 6633 after 24 hrs by two fold serial dilution method; assay type: functional; conditions: ATCC 6633, 24 h
Aspergillus flavus = assay: Antifungal activity against Aspergillus flavus after 24 hrs by two fold serial dilution method; assay type: functional
Staphylococcus aureus [5] = assay: Antibacterial activity against Staphylococcus aureus ATCC 25923 after 24 hrs by two fold serial dilution method; assay type: functional; conditions: ATCC 25923, 24 h
Pseudomonas aeruginosa = assay: Antibacterial activity against Pseudomonas aeruginosa ATCC 27853 after 24 hrs by two fold serial dilution method; assay type: functional; conditions: ATCC 27853, 24 h
Micrococcus luteus = assay: Antibacterial activity against Micrococcus luteus ATCC 4698 after 24 hrs by two fold serial dilution method; assay type: functional; conditions: NCTC 2665, 24 h
[6] = Antifungal activity against Candida utilis after 24 hrs by two fold serial dilution method; assay type: functional; conditions: Cyberlindnera jadinii
Saccharomyces cerevisiae = assay: Antifungal activity against Beer yeast after 24 hrs by two fold serial dilution method; assay type: functional

| Structure (SMILES) | MIC (Salmonella typhi) [µg/mL] | MIC (Proteus vulgaris) [µg/mL] | MIC (Escherichia coli [1]) [µg/mL] | MIC80 (Candida albicans) [µg/mL] | MIC (Shigella dysenteriae) [µg/mL] | MIC80 [2] [µg/mL] | MIC (Escherichia coli [3]) [µg/mL] | MIC (Staphylococcus aureus [4]) [µg/mL] | MIC (Bacillus spizizenii) [µg/mL] | MIC80 (Aspergillus flavus) [µg/mL] | MIC (Staphylococcus aureus [5]) [µg/mL] | MIC (Pseudomonas aeruginosa) [µg/mL] | MIC (Micrococcus luteus) [µg/mL] | MIC80 [6] [µg/mL] | MIC80 (Saccharomyces cerevisiae) [µg/mL] |
| --- | --- | --- | --- | --- | --- | --- | --- | --- | --- | --- | --- | --- | --- | --- | --- |
| Nc1ncc(-c2cn(Cc3ccc(F)cc3)c3c(F)cc(F)cc3c2=O)s1 | 16 (≈ 41.3 µM) | 64 (≈ 165 µM) | 16 (≈ 41.3 µM) | 32 (≈ 82.6 µM) | 4 (≈ 10.3 µM) | 16 (≈ 41.3 µM) | 32 (≈ 82.6 µM) | 16 (≈ 41.3 µM) | 128 (≈ 330 µM) | 32 (≈ 82.6 µM) | 32 (≈ 82.6 µM) | 64 (≈ 165 µM) | 16 (≈ 41.3 µM) | 64 (≈ 165 µM) | 32 (≈ 82.6 µM) |
| Nc1ncc(-c2cn(Cc3ccc(Cl)cc3)c3c(F)cc(F)cc3c2=O)s1 | 32 (≈ 79.2 µM) | 32 (≈ 79.2 µM) | 128 (≈ 317 µM) | 512 (≈ 1270 µM) | 16 (≈ 39.6 µM) | 256 (≈ 634 µM) | 64 (≈ 158 µM) | 64 (≈ 158 µM) | 256 (≈ 634 µM) | 64 (≈ 158 µM) | 128 (≈ 317 µM) | 128 (≈ 317 µM) | 64 (≈ 158 µM) | 256 (≈ 634 µM) | 128 (≈ 317 µM) |
| CCCCCCCCCCCCn1cc(-c2cnc(N)s2)c(=O)c2cc(F)cc(F)c21 | 64 (≈ 143 µM) | 256 (≈ 572 µM) | 128 (≈ 286 µM) | 128 (≈ 286 µM) | 128 (≈ 286 µM) | 32 (≈ 71.5 µM) | 256 (≈ 572 µM) | 128 (≈ 286 µM) | 64 (≈ 143 µM) | 256 (≈ 572 µM) | 512 (≈ 1140 µM) | 32 (≈ 71.5 µM) | 128 (≈ 286 µM) | 64 (≈ 143 µM) | 128 (≈ 286 µM) |
| CCCCCCCCCCn1cc(-c2cnc(N)s2)c(=O)c2cc(F)cc(F)c21 | 256 (≈ 610 µM) | 128 (≈ 305 µM) | 64 (≈ 153 µM) | 64 (≈ 153 µM) | 64 (≈ 153 µM) | 64 (≈ 153 µM) | 64 (≈ 153 µM) | 256 (≈ 610 µM) | 256 (≈ 610 µM) | 64 (≈ 153 µM) | 512 (≈ 1220 µM) | 64 (≈ 153 µM) | 128 (≈ 305 µM) | 128 (≈ 305 µM) | 64 (≈ 153 µM) |
| CCCCCCCn1cc(-c2cnc(N)s2)c(=O)c2cc(F)cc(F)c21 | 64 (≈ 170 µM) | 32 (≈ 84.8 µM) | 128 (≈ 339 µM) | 32 (≈ 84.8 µM) | 32 (≈ 84.8 µM) | 256 (≈ 678 µM) | 32 (≈ 84.8 µM) | 128 (≈ 339 µM) | 64 (≈ 170 µM) | 64 (≈ 170 µM) | 256 (≈ 678 µM) | 32 (≈ 84.8 µM) | 256 (≈ 678 µM) | 64 (≈ 170 µM) | 16 (≈ 42.4 µM) |
| Nc1ncc(-c2cn(Cc3cccc(Cl)c3)c3c(F)cc(F)cc3c2=O)s1 | 32 (≈ 79.2 µM) | 256 (≈ 634 µM) | 256 (≈ 634 µM) | 128 (≈ 317 µM) | 128 (≈ 317 µM) | 64 (≈ 158 µM) | 32 (≈ 79.2 µM) | 128 (≈ 317 µM) | 256 (≈ 634 µM) | 64 (≈ 158 µM) | 64 (≈ 158 µM) | 64 (≈ 158 µM) | 128 (≈ 317 µM) | 256 (≈ 634 µM) | 64 (≈ 158 µM) |
| OC(Cn1cncn1)(Cn1cncn1)c1ccc(F)cc1F [FLUCONAZOLE] | – | – | – | 1 (≈ 3.27 µM) | – | 4 (≈ 13.1 µM) | – | – | – | 256 (≈ 836 µM) | – | – | – | 8 (≈ 26.1 µM) | 16 (≈ 52.2 µM) |
| COc1ccc(Cn2cc(-c3cnc(N)s3)c(=O)c3cc(F)cc(F)c32)cc1 | 64 (≈ 160 µM) | 256 (≈ 641 µM) | 128 (≈ 320 µM) | 256 (≈ 641 µM) | 128 (≈ 320 µM) | 256 (≈ 641 µM) | 64 (≈ 160 µM) | 256 (≈ 641 µM) | 128 (≈ 320 µM) | 64 (≈ 160 µM) | 256 (≈ 641 µM) | 64 (≈ 160 µM) | 64 (≈ 160 µM) | 512 (≈ 1280 µM) | 64 (≈ 160 µM) |
